According to EP0768085A1, “ANTIBACTERIAL AGENT” (DAIICHI PHARMACEUTICAL CO., LTD., priority 1994, dated 1996):
≈ marks a conversion by molar mass, not a printed value.

Key:
Type in all cases: cell-based
[1] = system: Staphylococcus aureus 209-P; experiment: Antibacterial activity (IC), Mueller-Hinton broth, 96-well microplate (Example 4, Table 39); settings: 37°C, 18 hours
Description: (§1) A suitable amount of a sample was dissolved in dimethylsulfoxide (DMSO), and the resultant solution was diluted with the same amount of sterilized distilled water to prepare a bulk sample of 1,000 µg/ml. Mueller-Hinton broth (product of DIFCO) was dispensed into each well of 96-well microplate. Thereafter, the bulk specimen was added to the first well of a row, and successively diluted (10-fold each time) with sterilized distilled water. Separately, a bacterial cell suspension for the test (Staphylococcus aureus 209-P) which had been cultured in the above-mentioned broth overnight at 37°C was inoculated to each well so that the final inoculation amount of 10^6 CFU/ml was attained. The final concentrations of the samples were 100, 10, and 1 µg/ml.
(§2) The antibacterial action was evaluated by the inhibitory concentration (hereinafter abbreviated as IC) at which propagation of the bacteria cultured at 37°C for 18 hours was inhibited. Inhibition was determined by the turbidity of the medium. The expressions "IC≤100", "≤10", and "≤1" indicate that MIC-equivalent values obtained at the succesive […] dilution of the sample are 100-10 µg/ml, 10-1 µg/ml, and not more than 1 µg/ml, respectively. […] (In the subsequent Examples, the same rule applies correspondingly.) Table 39

[2] = system: Staphylococcus aureus TI-1; experiment: Antibacterial activity (IC), broth microplate as in Example 4 (Example 5, Table 40); settings: TI1, 18 h
Description: as §1, §2
In a manner similar to that described in Example 4, antibacterial activity of the invention compound was determined. The bacterium used for the test was Staphylococcus aureus TI-1.

[3] = system: Staphylococcus aureus (209-P); experiment: Antibacterial activity (IC), agar as in Example 8 (Example 15, Table 48); settings: 18 h
Description: as §2
(§3) A suitable amount of a sample was dissolved in dimethylsulfoxide (DMSO), after which the resulting solution was diluted with the same amount of sterilized distilled water to prepare a bulk sample of 1,000 µg/ml. Separately, a bacterial liquid for the test (methicillin-resistant Staphylococcus aureus (MRSA) isolated from humans) which had been cultured in Mueller-Hinton broth (product of DIFCO) was prepared and inoculated to a Mueller-Hinton agar (product of DIFCO) containing the sample so that the final inoculation amount of 10^6 CFU/ml was achieved. The final concentrations of the samples were 100, 10, and 1 µg/ml.
(§4) After culturing at 37°C for 18 hours, the antibacterial activity was evaluated in terms of IC in a manner similar to that described in Example 4.
The bacterium used for the test was Staphylococcus aureus (209-P).

[4] = system: Streptococcus aureus (TI-1); experiment: Antibacterial activity (IC), agar as in Example 8 (Example 16, Table 49); settings: 18 h
Description: as §2, §3, §4
In a manner similar to that described in Example 8, antibacterial activity of the invention compound was determined. The bacterium used for the test was […] aureus (TI-1).

[5] = system: Pasteurella multocida (Kobe-6); experiment: Antibacterial activity (IC), agar as in Example 8 (Example 17, Table 50); settings: 18 h, origin pig
Description: as §2, §3, §4
In a manner similar to that described in Example 8, antibacterial activity of the invention compound was determined. The bacterium used for the test was Pasteurella Kobe-6 (origin: pig, Pasteurella multocida).

[6] = system: methicillin-resistant Staphylococcus aureus (MRSA) from humans; experiment: Antibacterial activity (IC), agar as in Example 8 (Example 19, Table 52); settings: 18 h
Description: as §2, §3, §4
In a manner similar to that described in Example 8, antibacterial activity of a variety of ketonitrile derivatives shown in Table 52 was measured. The bacterium used for the test was methicillin-resistant Staphylococcus aureus (MRSA) from humans.

SMILES | MIC [1] [µg/mL] | MIC [2] [µg/mL] | also measured
CC(Oc1ccc(Oc2nc3ccccc3s2)cc1)C(=O)C(C#N)c1ccc(Cl)cc1Cl (centres unmarked) [Compound No. 11] | 10 to 100 (≈ 20.7 to 207 µM) | 10 to 100 (≈ 20.7 to 207 µM) | 
N#CC(C(=O)COc1ccc(Oc2ccc(C(F)(F)F)cn2)cc1)c1cccc(Cl)c1 (centres unmarked) [Compound No. 13] | 10 to 100 (≈ 22.4 to 224 µM) | 10 to 100 (≈ 22.4 to 224 µM) | 
CC(Oc1ccc(Oc2ccc(C(F)(F)F)cc2Cl)cc1)C(=O)C(C#N)C(=O)N(C)c1ccccc1 (centres unmarked) [Compound No. 36, 4-[4-(2-chloro-4-trifluoromethylphenoxy)phenoxy]-2-methylphenylamidecarbonile-3-oxopentanitrile] |  | 1 to 10 (≈ 1.93 to 19.3 µM) | 
CC(Oc1cccc(Oc2ccc(C(F)(F)F)cn2)c1)C(=O)C(C#N)c1ccc(Cl)c(Cl)c1 (centres unmarked) [Compound No. 102, 2-(3,4-dichlorophenyl)-3-oxo-4-[3-(5-trifluoromethyl-2-pyridyloxy)phenoxy]pentanonitrile] |  |  | MIC [3]: 1 to 10 µg/mL (≈ 2.02 to 20.2 µM); MIC [4]: ≤ 1 µg/mL
CC(Oc1cccc(Oc2ccc(C(F)(F)F)cc2Cl)c1)C(=O)C(C#N)c1cccc(Br)c1 (centres unmarked) [Compound No. 104, 2-(3-bromophenyl)-4-[3-(2-chloro-4-trifluoromethylphenoxy)phenoxy]-3-oxopentanonitrile] |  |  | MIC [3]: ≤ 1 µg/mL; MIC [4]: ≤ 1 µg/mL; MIC [5]: 1 to 10 µg/mL (≈ 1.86 to 18.6 µM); MIC ([6]; MRSA strain 891179): 1 to 10 µg/mL (≈ 1.86 to 18.6 µM); MIC ([6]; MRSA strain 891185): 1 to 10 µg/mL (≈ 1.86 to 18.6 µM); MIC ([6]; MRSA strain 891187): 1 to 10 µg/mL (≈ 1.86 to 18.6 µM); MIC ([6]; MRSA strain 891192): 1 to 10 µg/mL (≈ 1.86 to 18.6 µM); MIC ([6]; MRSA strain 900048): 1 to 10 µg/mL (≈ 1.86 to 18.6 µM); MIC ([6]; MRSA strain 900056): 1 to 10 µg/mL (≈ 1.86 to 18.6 µM)
COc1ccc(C(C#N)C(=O)C(C)Oc2cccc(Oc3ccc(C(F)(F)F)cc3Cl)c2)cc1 (centres unmarked) [Compound No. 107, 4-[3-(2-chloro-4-trifluoromethylphenoxy)-phenoxy]-2-(4-methoxyphenyl)-3-oxopentanonitrile] |  |  | MIC [3]: 10 to 100 µg/mL (≈ 20.4 to 204 µM); MIC [4]: 10 to 100 µg/mL (≈ 20.4 to 204 µM)
CC(Oc1ccc(Oc2nc(Cl)c(Cl)cc2Cl)cc1)C(=O)C(C#N)c1ccc(Cl)cc1Cl (centres unmarked) [compound 7] | 10 to 100 (≈ 18.8 to 188 µM) | 1 to 10 (≈ 1.88 to 18.8 µM) | 
CC(Oc1ccc(Oc2ccc(C(F)(F)F)cn2)cc1)C(=O)C(C#N)c1cccc(C(F)(F)F)c1 (centres unmarked) [compound 8] | 10 to 100 (≈ 20.2 to 202 µM) | 1 to 10 (≈ 2.02 to 20.2 µM) | 
CC(Oc1ccc(Oc2ncc(C(F)(F)F)cc2Cl)cc1)C(=O)C(C#N)c1nc(Cl)cc(Cl)n1 (centres unmarked) [compound 21] | 10 to 100 (≈ 18.8 to 188 µM) | 1 to 10 (≈ 1.88 to 18.8 µM) | 

Further lines, with some results ahead:

MIC [1] [µg/mL] | MIC [2] [µg/mL] | SMILES | also measured
10 to 100 (≈ 25 to 250 µM) | 10 to 100 (≈ 25 to 250 µM) | CC(Oc1ccc(Oc2ccc(C#N)cc2F)cc1)C(=O)C(C#N)c1ccccc1 (centres unmarked) [Compound No. 30] | 
10 to 100 (≈ 21.3 to 213 µM) | 10 to 100 (≈ 21.3 to 213 µM) | CC(Oc1ccc(Oc2ccc(C#N)cc2F)cc1)C(=O)C(C#N)c1ccc(Cl)cc1Cl (centres unmarked) [Compound No. 31] | 
1 to 10 (≈ 1.64 to 16.4 µM) |  | CC(Oc1ccc(Oc2ncc(C(F)(F)F)cc2Cl)cc1)C(=O)C(C#N)C(=O)N(Cc1ccccc1)Cc1ccccc1 (centres unmarked) [Compound No. 38, 4-[4-(3-chloro-5-trifluoromethylpyridyloxy)phenoxy]-2-dibenzylamidecarbonile-3-oxopentanitrile] | 
10 to 100 (≈ 20.8 to 208 µM) | 1 to 10 (≈ 2.08 to 20.8 µM) | N#CC(C(=O)COc1ccc(Oc2ncc(C(F)(F)F)cc2Cl)cc1)c1cccc(Cl)c1 (centres unmarked) [compound 12] | 
10 to 100 (≈ 21.7 to 217 µM) | 1 to 10 (≈ 2.17 to 21.7 µM) | CC(Oc1ccc(Oc2ncc(C(F)(F)F)cc2Cl)cc1)C(=O)C(C#N)c1ccccc1 (centres unmarked) [compound 18] | 
10 to 100 (≈ 21.4 to 214 µM) | 10 to 100 (≈ 21.4 to 214 µM) | CC(Oc1ccc(Oc2ncc(C(F)(F)F)cc2Cl)cc1)C(=O)C(C#N)c1cccs1 (centres unmarked) [compound 19] | 
10 to 100 (≈ 18.9 to 189 µM) |  | CC(Oc1ccc(Oc2ncc(C(F)(F)F)cc2Cl)cc1)C(=O)C(C#N)c1c(Cl)cccc1Cl (centres unmarked) [compound 23] | 
10 to 100 (≈ 19.5 to 195 µM) | 10 to 100 (≈ 19.5 to 195 µM) | CC(Oc1ccc(Oc2ncc(C(F)(F)F)cc2Cl)cc1)C(=O)C(C#N)c1c(F)cccc1Cl (centres unmarked) [compound 24] | 
